Data published in publication PMC8634379, “From the Design to the In Vivo Evaluation of Benzohomoadamantane-Derived Soluble Epoxide Hydrolase Inhibitors for the Treatment of Acute Pancreatitis” (Journal of Medicinal Chemistry, 2021).

Assays:
human sEH (hsEH) = biological target: T1, human sEH (hsEH) (Homo sapiens, UniProt P34913); assay: sEH inhibition, fluorescent-based assay (CMNPC substrate); type: biochemical; conditions: for fold difference (decrease) in hsEH potency: 17 vs 16 (oxygen for methylene), 18 vs 17 (hydrogen for methyl)
T1 sequence (P34913 1-555): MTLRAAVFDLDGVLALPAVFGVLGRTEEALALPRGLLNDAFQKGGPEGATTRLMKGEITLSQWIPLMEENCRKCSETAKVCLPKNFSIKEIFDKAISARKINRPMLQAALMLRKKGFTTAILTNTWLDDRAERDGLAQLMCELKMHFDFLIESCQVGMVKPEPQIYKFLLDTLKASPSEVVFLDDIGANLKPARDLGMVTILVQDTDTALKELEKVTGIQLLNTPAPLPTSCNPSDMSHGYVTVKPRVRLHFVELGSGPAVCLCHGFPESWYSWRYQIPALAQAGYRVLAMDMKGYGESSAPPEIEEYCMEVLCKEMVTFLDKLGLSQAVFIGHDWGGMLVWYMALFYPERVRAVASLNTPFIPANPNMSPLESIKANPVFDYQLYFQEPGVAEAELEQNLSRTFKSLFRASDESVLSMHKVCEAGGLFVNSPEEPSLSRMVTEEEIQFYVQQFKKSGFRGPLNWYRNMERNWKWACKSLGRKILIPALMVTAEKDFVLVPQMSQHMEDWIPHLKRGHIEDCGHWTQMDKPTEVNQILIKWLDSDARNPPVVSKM
Procedure: The IC50 values reported herein were determined using a fluorescent-based assay (CMNPC as substrate).[16] The fluorescent assay was used with purified recombinant human, mouse, or rat sEH proteins. The enzymes were incubated at 30 °C with the inhibitors ([I]final = 0.4–100,000 nM) for 5 min in 100 mM sodium phosphate buffer (200 μL, pH 7.4) containing 0.1 mg/mL of BSA and 1% of DMSO. The substrate (CMNPC) was then added ([S]final = 5 μM). […] Results were obtained by regression analysis from a linear region of the curve.

Microsomal stability [1] = type: in vitro ADME, mice; conditions: after 60 min incubation, NADP, 37 °C
Procedure: (§1) The human, rat, and mice recombinant microsomes employed were purchased from Tebu–Xenotech. […] Samples (75 μL) were taken from each well at 0, 10, 20, 40, and 60 min and transferred to a plate containing 4 °C 75 μL of acetonitrile and 30 μL of 0.5% formic acid in water were added for improving the chromatographic conditions. The plate was centrifuged ([…], 30 min) and supernatants were taken and analyzed by an ultraperformance liquid chromatograph–tandem mass spectrometer (Xevo-TQD, Waters) by employing a BEH C18 column and an isocratic gradient of 0.1% formic acid in water: 0.1% formic acid acetonitrile (60:40). The metabolic stability of the compounds was calculated from the logarithm of the remaining compounds at each of the time points studied.

Microsomal stability [2] = type: in vitro ADME, human; conditions: after 60 min incubation, NADP, 37 °C
Procedure: as §1

Microsomal stability [3] = conditions: after 60 min incubation, NADP, 37 °C
Procedure: as §1

[4] = purified recombinant enzyme, average of three replicates

SMILES	IC50 (human sEH (hsEH); [4]) [nM]	microsomal stability, percentage of remaining compound (mice) (Microsomal stability [1]) [%]	microsomal stability, percentage of remaining compound (human) (Microsomal stability [2]) [%]	fold difference (decrease) in hsEH potency (human sEH (hsEH)) [fold]	IC50 (human sEH (hsEH); value given in the text) [nM]	microsomal stability, percentage of remaining compound (rat) (Microsomal stability [3])
CC12CC3CC(NC(=S)Nc4ccc(C(F)(F)F)cc4)(CC(C1)c1ccccc13)C2 [Compound 9, 1-(9-Methyl-5,6,8,9,10,11-hexahydro-7H-5,9:7,11-dimethanobenzo[9]annulen-7-yl)-3-(4-(trifluoromethyl)phenyl)thiourea]	138					
Cc1ccc(OC(=O)NC23CC4CC(C)(CC(C2)c2ccccc24)C3)cc1 [Compound 11, p-Tolyl (9-Methyl-5,6,8,9,10,11-hexahydro-7H-5,9:7,11-dimethanobenzo[9]annulen-7-yl)carbamate]	> 10000				12700	
CC12CC3CC(NC(=O)Nc4ccc(F)c(F)c4F)(CC(C1)c1ccccc13)O2 [Compound 14, 1-(5-Methyl-1,5,6,7-hexahydro-1,5:3,7-dimethanobenzo[e]oxonin-3(2H)-yl)-3-(2,3,4-trifluorophenyl)urea]	20	23	77			33%
CC(=O)N1CCC(NC(=O)NC23CC4CC(C)(CC(C2)c2ccccc24)C3)CC1 [Compound 16, 1-(1-Acetylpiperidin-4-yl)-3-(9-methyl-5,6,8,9,10,11-hexahydro-7H-5,9:7,11-dimethanobenzo[9]annulen-7-yl)urea]						less than 1%
CC(=O)N1CCC(NC(=O)NC23CC4CC(C)(CC(C2)c2ccccc24)O3)CC1 [Compound 17, 1-(1-Acetylpiperidin-4-yl)-3-(5-methyl-1,5,6,7-tetrahydro-1,5:3,7-dimethanobenzo[e]oxonin-3(2H)-yl)urea]	941			300		

More lines, main results first:

IC50 (human sEH (hsEH); [4]) [nM]	microsomal stability, percentage of remaining compound (mice) (Microsomal stability [1]) [%]	microsomal stability, percentage of remaining compound (human) (Microsomal stability [2]) [%]	fold difference (decrease) in hsEH potency (human sEH (hsEH)) [fold]	SMILES	IC50 (human sEH (hsEH); value given in the text) [nM]	microsomal stability, percentage of remaining compound (rat) (Microsomal stability [3])
1	0.2	7		CC12CC3CC(NC(=O)Nc4ccc(F)c(F)c4F)(CC(C1)c1ccccc13)C2 [Compound 13, 1-(9-Methyl-5,6,8,9,10,11-hexahydro-7H-5,9:7,11-dimethanobenzo[9]annulen-7-yl)-3-(2,3,4-trifluorophenyl)urea]		
> 10000			> 10	CC(=O)N1CCC(NC(=O)NC23CC4CC(CC(C2)c2ccccc24)O3)CC1 [Compound 18, 1-(1-Acetylpiperidin-4-yl)-3-(1,5,6,7-tetrahydro-1,5:3,7-dimethanobenzo[e]oxonin-3(2H)-yl)urea]		
28	83	90		CC12CC3CC(NC(=O)N[C@H]4CC[C@H](Oc5ccc(C(=O)O)cc5)CC4)(CC(C1)c1ccccc13)O2 [Compound 21, 4-[((1r,4r)-4-(3-(5-Methyl-1,5,6,7-tetrahydro-1,5:3,7-Dimethanobenzo[e]oxonin-3(2H)-yl)ureido)cyclohexyl)oxy]benzoic Acid]		
